Measurements reported in article PMC4232510, “Identification of Functionally Important Residues of the Rat P2X4 Receptor by Alanine Scanning Mutagenesis of the Dorsal Fin and Left Flipper Domains” (PLoS ONE, 2014).
Where a chain is given by its changes, count along the chain named. “And” between values parts separate entries of the source, which are not always exact repeats. Equal entries are not always repeated.

What was measured:
Type in all cases: cell-based
[1] = target: T1, wild type (WT) rP2X4R (Rattus norvegicus, UniProt P51577); assay: whole-cell patch clamp, HEK293T cells expressing WT receptor; conditions: for relative responsiveness: 100 µM agonist 2 s, relative to ATP (100%); for EC50: naïve receptors, 2–5 s application
T1 construct: expressed in transfected cells; host or cells: HEK293T
T1 sequence (P51577 1-388): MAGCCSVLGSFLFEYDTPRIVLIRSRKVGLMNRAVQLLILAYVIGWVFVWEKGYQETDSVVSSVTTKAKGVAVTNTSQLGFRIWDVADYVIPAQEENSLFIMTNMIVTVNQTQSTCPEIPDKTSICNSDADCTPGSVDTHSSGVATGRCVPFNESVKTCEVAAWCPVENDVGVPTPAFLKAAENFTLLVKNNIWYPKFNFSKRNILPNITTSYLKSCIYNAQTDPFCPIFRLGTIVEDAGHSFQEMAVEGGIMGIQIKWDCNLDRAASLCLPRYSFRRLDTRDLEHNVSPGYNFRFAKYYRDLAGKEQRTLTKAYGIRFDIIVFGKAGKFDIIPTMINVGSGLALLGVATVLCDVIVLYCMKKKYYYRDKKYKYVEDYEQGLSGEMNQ
Protocol: (§1) To express the recombinant channels, we used human embryonic kidney (HEK) 293T cells (American Type Culture Collection, Rockville, MD, USA) grown in Dulbecco modified Eagle’s medium (Thermo Fisher Scientific, Waltham, MA) supplemented with 10% fetal bovine serum (Sigma-Aldrich, St Louis, MO), 50 U/ml penicillin and 50 µg/ml streptomycin (both Thermo Fisher Scientific, Waltham, MA) in a humidified 5% CO2 and 95% air at 37°C. Cells were cultured in 75 cm^2 plastic culture flasks (NUNC, Rochester, NY) for 36–72 hours until reaching 80–95% confluence. Before the day of transfection, the cells were plated on 35 mm culture dishes (Sarstedt, Newton, NC) and incubated at 37°C for at least 24 h. Transfection was done using 2 µg of either WT or mutant receptor DNA with 2 µl of JetPrime reagent in 2 ml of Dulbecco modified Eagle’s medium, according to manufacturer’s instructions (PolyPlus-transfection, Illkirch, France). Transfected cells were identified by the fluorescence signal of EGFP using the Olympus IX71 inverted research microscope with fluorescence illuminators (Model IX71; Olympus, Melville, NY).
(§2) cDNAs encoding the sequences of the rP2X4 and mutated subunits were subcloned into the pIRES2-EGFP vector (Clontech, Mountain View, CA, USA). To generate the mutants, oligonucleotides (synthesized and provided by VBC-Genomics, Vienna, Austria or Sigma Aldrich) containing specific mutagenesis mismatches were introduced into the rP2X4/pIRES2-EGFP template using PfU Ultra DNA polymerase (Thermo Fisher Scientific). A High-Speed Plasmid Mini Kit (Geneaid, Taipei City, Taiwan) was used to isolate the plasmids for transfection. Dye terminator cycle sequencing (ABI PRISM 3100, Applied Biosystems, Foster City, CA) was used to identify and verify the presence of the mutations. The sequencing was performed by the DNA Sequencing Laboratory, Institute of Microbiology, ASCR, Prague.
(§3) ATP-induced currents were recorded from whole cells clamped to −60 mV using an Axopatch 200B patch-clamp amplifier (Axon Instruments, Union City, CA). The recordings were captured and stored using the Digidata 1322A and pClamp9 software package (Axon Instruments). During the experiments, the cell culture was perfused with a bath solution containing: 142 mM NaCl, 3 mM KCl, 2 mM CaCl2, 1 mM MgCl2, 10 mM 4-(2-Hydroxyethyl)piperazine-1-ethanesulfonic acid (HEPES) and 10 mM D-glucose, adjusted to pH 7.3 with 1 M NaOH. The patch electrodes were filled with a solution containing: 154 mM CsCl, 11 mM EGTA and 10 mM HEPES, adjusted to pH 7.2 with 1.6 M CsOH. The whole-cell configuration was used to abolish the influence of natively present metabotropic receptors for ATP and we used intracellular cesium to block any kind of possible background potassium conductance. Potency of ATP was measured based on the activation of naïve (not previously stimulated) receptors using a short (2–5 s) application of various concentrations of ATP. The results are expressed as molar concentration of ATP required to produce 50% of the maximal response (EC50). One or two responses were recorded from one cell, if not otherwise stated, and responses from different cells were pooled. The maximum current amplitude (Imax) was measured in response to application of supramaximal concentrations (100–1000 µM) of ATP. Responsiveness to P2XR agonists 2-MeS-ATP, ATPγS, BzATP, and α,β-meATP, all applied in 100 µM concentration, was expressed as percentage of response in comparison to 100 µM ATP treatment for selected mutants. In all mutants, the whole cell currents were also measured in the presence of 3 µM IVM, which was dissolved in dimethyl sulfoxide, stored in stock solutions at 10 mM, and diluted to required concentrations in bath solution in the day of experiment. The control and drug containing solutions were applied via a rapid (exchange time 30–40 ms) perfusion system (RSC-200, BIOLOGIC, Claix, France). All other chemicals are from Sigma-Aldrich. […]

[2] = target: T2, rP2X4R G291A mutant (Rattus norvegicus, UniProt P51577, G291A); assay: whole-cell patch clamp, HEK293T cells expressing mutant; conditions: for relative responsiveness: 100 µM agonist 2 s, relative to ATP (100%)
T2 construct: expressed in transfected cells; host or cells: HEK293T
T2 sequence (P51577 1-388 G291A): T1 sequence (P51577 1-388) with G291A
Protocol: as §1, §2, §3

[3] = target: T3, rP2X4R N208A mutant (Rattus norvegicus, UniProt P51577, N208A); assay: as above; conditions: for relative responsiveness: 100 µM agonist 2 s, relative to ATP (100%)
T3 construct: expressed in transfected cells; host or cells: HEK293T
T3 sequence (P51577 1-388 N208A): T1 sequence (P51577 1-388) with N208A
Protocol: as §1, §2, §3

[4] = 3 µM IVM 4-6 min vs IVM-untreated
[5] = 100 µM ATP 60 s, biexponential fit
[6] = contribution of τdes2, 100 µM ATP 60 s
[7] = decay after removal of 1 or 3 µM ATP, 3 µM IVM
[8] = naïve receptors, 2–5 s application

Compound: 2′(3′-O-(4-Benzoylbenzoyl)adenosine 5′-triphosphate [BzATP]
- relative responsiveness [1]: 38% and 38.2±3.4%
- EC50 [1]: 11.1 ± 2.9 µM
- relative responsiveness [2]: 53.0±4.0 %
- relative responsiveness [3]: 33.4±5.4%

Compound: CC[C@H](C)[C@H]1O[C@]2(CC[C@@H]1C)C[C@@H]1C[C@@H](C/C=C(\C)[C@@H](O[C@H]3C[C@H](OC)[C@@H](O[C@H]4C[C@H](OC)[C@@H](O)[C@H](C)O4)[C@H](C)O3)[C@@H](C)/C=C/C=C3\CO[C@@H]4[C@H](O)C(C)=C[C@@H](C(=O)O1)[C@]34O)O2 [IVM, ivermectin]
- Fold incr. Imax [1, 4]: 1.7 ± 0.2 fold
- Fold incr. Imax [2, 4]: 1.4 ± 0.02 fold
- Fold incr. Imax [3, 4]: 2.3 ± 0.5 fold

Compound: CSc1nc(N)c2ncn([C@@H]3O[C@H](COP(=O)(O)OP(=O)(O)OP(=O)(O)O)[C@@H](O)[C@H]3O)c2n1 [2-MeS-ATP, 2-(Methylthio)adenosine 5′-triphosphate]
- relative responsiveness [1]: 67% and 67.3±4.6%
- EC50 [1]: 7.9 ± 1 µM
- relative responsiveness [2]: 36.9±8.8 %
- relative responsiveness [3]: 60.0±11.2%

Compound: Nc1ncnc2c1ncn2[C@@H]1O[C@H](CO[P@](=O)(O)O[P@](=O)(O)O[P@@](=O)(O)S)[C@@H](O)[C@H]1O [ATPγS, Adenosine 5′-(γ-thio)triphosphate]
- relative responsiveness [1]: 50% and 49.6±3.5%
- EC50 [1]: 8.4 ± 1.8 µM
- relative responsiveness [2]: 31.6±6.1 %
- relative responsiveness [3]: 42.2±5.2%

Compound: Nc1ncnc2c1ncn2[C@@H]1O[C@H](COP(=O)(O)OP(=O)(O)OP(=O)(O)O)[C@@H](O)[C@H]1O [ATP]
- τdes1 [1, 5]: 1.3 ± 0.2 s
- τdes2 [1, 5]: 9.0 ± 0.7 s
- relative responsiveness [1]: 100%
- Imax ([1]; 100–1000 µM ATP): 2.2 ± 0.2 nA
- Imax+IVM ([1]; ATP after 3 µM IVM 4-6 min): 3.4 ± 0.3 nA
- A2 /(A1+A2) [1, 6]: 63 ± 3%
- τoff +IVM [1, 7]: 21 ± 1.0 s
- EC50 [1]: 2.3 ± 0.4 µM
- τdes ([1]; weighted, 100 µM ATP 60 s): 6.0 ± 0.4 s
- τdes1 [2, 5]: 2.0 ± 0.5 s
- τdes2 [2, 5]: 16.5 ± 2.7 s
- Imax ([2]; 100–1000 µM ATP): 2.1 ± 0.2 nA
- Imax+IVM ([2]; ATP after 3 µM IVM 4-6 min): 3.3 ± 0.4 nA
- A2 /(A1+A2) [2, 6]: 69 ± 12%
- τoff +IVM [2, 7]: 13 ± 1.0 s
- EC50 [2, 8]: 15 ± 3.8 µM
- τdes ([2]; weighted, 100 µM ATP 60 s): 13 ± 2.7 s
- τdes1 [3, 5]: 1.1 ± 0.8 s
- τdes2 [3, 5]: 8.7 ± 4.8 s
- Imax ([3]; 100–1000 µM ATP): 1.7 ± 0.3 nA
- Imax+IVM ([3]; ATP after 3 µM IVM 4-6 min): 3.6 ± 0.3 nA
- A2 /(A1+A2) [3, 6]: 77 ± 4%
- τoff +IVM [3, 7]: 9.1 ± 0.2 s
- EC50 [3, 8]: 7.6 ± 2.1 µM
- τdes ([3]; weighted, 100 µM ATP 60 s): 6.8 ± 3.5 s

Compound: Nc1ncnc2c1ncn2C1OC(COP(=O)(O)CP(=O)(O)OP(=O)(O)O)C(O)C1O (stereo not drawn) [α,β-meATP, α,β-methyleneadenosine 5′-triphosphate]
- relative responsiveness [1]: 32% and 31.8±3.3%
- EC50 [1]: 62 ± 18 µM
- relative responsiveness [2]: 2.8±0.5 %
- relative responsiveness [3]: 28.5±2.3%
